From patent US20240316012A1, “METHODS FOR TREATING LYMPHOMA” (Northwestern University, priority 2023, published 2024)

Tested on: ACLY (p-ACLY^S455)
Experiment: Western blot analysis of p-ACLY^S455
Assay type: cell-based, mouse
Conditions: overnight in vitro with anti-PD-L1; Wortmannin 20 nM, LY294002 20 μM; 2 μM, 10 μM
Method: FIGS. 4A-4H show ACLY is a critical effector molecule downstream of PD-1. […] ITK-SYK^+ cells were FACS-sorted from ITK-SYK^CD4-creERT2 mice on d5 after TAM and 12 h anti-PD-L1 or isotype control antibody treatment (i.p., 200 μg). P=paired two-sided Student's t-test. Data are presented as the mean±SD. […] Spleen-derived single-cell suspensions were FACS-sorted from ITK-SYK^CD4-creERT2 mice on d5 after TAM and cultured in vitro overnight with anti-PD-L1 or isotype control antibodies and the PI3K inhibitors (“iPI3K”) Wortmannin (20 nM), LY294002 (20 μM), or DMSO. […] Spleen-derived lymphocytes, FACS-sorted from ITK-SYK^CD4-creERT2 and ITK-SYK^CD4-creERT2; Pdcd1^−/− mice on d5 after TAM were incubated for three days in vitro. P=two-sided Student's t-test. Data are presented as the mean±SD. […] Protein lysates were generated after 48 h in vitro culture. RNP, ribonucleoprotein. […] P=two-sided Logrank-test. […] ITK-SYK^+ cells were FACS-sorted from ITK-SYK^CD4-creERT2 (“Pdcd1^+/+”) and ITK-SYK^CD4-creERT2; Pdcd1^−/− (“Pdcd1^−/−”) mice on d5 after TAM, fixed, and processed for anti-H3K27ac ChIP-seq analysis. ChIP-seq, chromatin immunoprecipitation sequencing; TSS, transcription start site. FIG. 4B, Representative data from three independent experiments with three biological replicates per group. FIG. 4C, Representative data from two independent experiments with two biological replicates. […]

## O=c1cc(N2CCOCC2)oc2c(-c3ccccc3)cccc12 [LY294002, 2-(4-morpholinyl)-8-phenyl-4H-1-benzopyran-4-one]
  p-ACLY^S455 phosphorylation induced by PD-1 inactivation: could be reversed
